Laboratory results published in patent publication US7517877B2, “5-substituted-alkylaminopyrazole derivatives as pesticides” (Merial Limited, priority 2002, dated 2009).

What was measured:
[1] = system: Nephotettix cinciceps (Rice Leafhopper); experiment: Method C: Nephotettix cinciceps (Rice Leafhopper) screen, dipped rice plants; format: in vivo, Nephotettix cincticeps; details: 144 h, test concentration of 100 ppm, L3 larvae, after 6 days storage
Description: Method C: Nephotettix Cinciceps (Rice Leafhopper) Screen
The leaves of 12 rice plants having a stem length of 8 cm were dipped for 5 seconds into an aqueous solution of the formulated test compound. After the solution had run off, the rice plants treated in this manner were placed in a Petri dish and populated with about 20 larvae (L3 stage) of Nephotettix cincticeps. The Petri dish was closed and then stored in a climate chamber (16 hours of light/day, 25° C., 40-60% relative humidity). After 6 days storage, the percentage mortality of leafhopper larvae was determined.

melting point [°C]	Compound	mortality at 100 ppm [1] [%]
89	CCSCCCN(C)c1c(S(=O)(=O)C(F)(F)F)c(C#N)nn1-c1c(Cl)cc(C(F)(F)F)cc1Cl [Compound 2-14, 1-(2,6-dichloro-4-trifluoromethylphenyl)-3-cyano-5-[N-(3-ethylthiopropyl)-N-methylamino]-4-trifluoromethylsulfonylpyrazole]	–
80	CCSCCCNc1c(S(=O)(=O)C(F)(F)F)c(C#N)nn1-c1c(Cl)cc(C(F)(F)F)cc1Cl [Compound 1-14, 1-(2,6-dichloro-4-trifluoromethylphenyl)-3-cyano-5-(3-ethylthiopropylamino)-4-trifluoromethylsulfonylpyrazole]	–
–	[O-][S+](C1CCSC1)C1CCSC1 (stereo not drawn) [Compound 1-37, 3-tetrahydrothienyl sulfoxide]	≥ 98
